Reference: the supplement of paper PMC8967900

Assays:
Assay in all cases: selective drug sensitivity score (sDSS, relative to normal bone marrow) (sDSS (score)); higher = more potent and effective on the cell line relative to normal bone marrow cells
Conditions in all cases: 72 h
MOLT-14 = system: MOLT-14
RCH-ACV = system: RCH-ACV
MHH-CALL-4 = system: MHH-CALL-4
DND-41 = system: DND-41
ALL-SIL = system: ALL-SIL
COG-LL-402h = system: COG-LL-402h
RPMI-8402 = system: RPMI-8402
KASUMI-9 = system: KASUMI-9
KASUMI-2 = system: KASUMI-2
COG-LL-355h = system: COG-LL-355h
NALM-6 = system: NALM-6
380 = system: 380
CCRF-CEM = system: CCRF-CEM
MOLT-16 = system: MOLT-16
HPB-ALL = system: HPB-ALL
NALM-16 = system: NALM-16
COG-LL-394h = system: COG-LL-394h
REH = system: REH
KASUMI-10 = system: KASUMI-10
697 = system: 697
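Note: ALL cell lines in 384-well plates, five doses spanning 10,000-fold, each plate scaled between vehicle and 100 µmol/L benzalkonium chloride controls, sDSS an adapted area-under-curve metric.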

| Compound | selective drug sensitivity score (MOLT-14) | selective drug sensitivity score (RCH-ACV) | selective drug sensitivity score (MHH-CALL-4) | selective drug sensitivity score (DND-41) | selective drug sensitivity score (ALL-SIL) | selective drug sensitivity score (COG-LL-402h) | selective drug sensitivity score (RPMI-8402) | selective drug sensitivity score (KASUMI-9) | selective drug sensitivity score (KASUMI-2) | selective drug sensitivity score (COG-LL-355h) | selective drug sensitivity score (NALM-6) | selective drug sensitivity score 380 | selective drug sensitivity score (CCRF-CEM) | selective drug sensitivity score (MOLT-16) | selective drug sensitivity score (HPB-ALL) | selective drug sensitivity score (NALM-16) | selective drug sensitivity score (COG-LL-394h) | selective drug sensitivity score (REH) | selective drug sensitivity score (KASUMI-10) | selective drug sensitivity score 697 |
| --- | --- | --- | --- | --- | --- | --- | --- | --- | --- | --- | --- | --- | --- | --- | --- | --- | --- | --- | --- | --- |
| COc1cc2ncnc(Nc3ccc(F)c(Cl)c3)c2cc1OCCCN1CCOCC1 [Gefitinib] (top concentration 10000 nM) | 1.96 | 1.66 | -3.04 | 1.16 | 3.66 | 0.96 | 3.96 | 0.16 | -3.04 | 0.96 | -0.44 | -3.04 | 0.56 | 3.36 | -1.14 | -3.04 | 0.16 | 2.36 | 1.36 | 2.26 |
| CN1CC[C@@H](NC(=O)Nc2ccc(C#N)cc2)C[C@@H]1c1nc2ccccc2[nH]1 [Glasdegib] (top concentration 1000 nM) | 0 | 0 | 0 | 2.9 | 0.8 | 0 | 0 | 0 | 11.9 | 0 | 0 | 0 | 0 | 0 | 0.1 | 0 | 0 | 1.6 | 0 | 0 |
| CN1CCN(C2CCN(C(=O)Nc3cc(Oc4ccc(NC(=O)C5(C(=O)Nc6ccc(F)cc6)CC5)c(F)c4)ccn3)CC2)CC1 [Golvatinib] (top concentration 2500 nM) | -0.14 | 4.26 | -0.14 | -0.04 | 4.56 | -0.14 | 0.26 | 0.66 | -0.14 | -0.14 | 1.06 | -0.14 | -0.14 | -0.14 | 6.76 | -0.14 | 2.26 | 2.46 | 3.26 | 1.76 |
| CC(C)C[C@H](NC(=O)[C@@H](COC(C)(C)C)NC(=O)[C@H](Cc1ccc(O)cc1)NC(=O)[C@H](CO)NC(=O)[C@H](Cc1c[nH]c2ccccc12)NC(=O)[C@H](Cc1cnc[nH]1)NC(=O)[C@@H]1CCC(=O)N1)C(=O)N[C@@H](CCCNC(=N)N)C(=O)N1CCC[C@H]1C(=O)NNC(N)=O [Goserelin] (top concentration 10000 nM) | -0.06 | -0.06 | 0.14 | -0.06 | -0.06 | -0.06 | -0.06 | -0.06 | -0.06 | -0.06 | -0.06 | -0.06 | -0.06 | 0.14 | -0.06 | -0.06 | -0.06 | 0.14 | -0.06 | -0.06 |
| O=S(=O)(c1cccc2c(O)nccc12)N1CCCNCC1 [Hydroxyfasudil] (top concentration 19000 nM) | -0.92 | -0.72 | -0.12 | -0.92 | -0.92 | -0.92 | -0.72 | -0.12 | 0.08 | -0.92 | -0.92 | 3.98 | -0.32 | -0.02 | -0.92 | -0.92 | -0.92 | -0.62 | -0.82 | 1.18 |
| COc1cc(C(=O)O)ccc1NC(=O)[C@@H]1N[C@@H](CC(C)(C)C)[C@](C#N)(c2ccc(Cl)cc2F)[C@H]1c1cccc(Cl)c1F [Idasanutlin] (top concentration 10000 nM) | 15.6 | 21 | 12.3 | -11 | -12.5 | 15.4 | -12.5 | 23 | 18.2 | 13.7 | 5.66 | 23.5 | -9.94 | 21.3 | -8.54 | -8.74 | 4.96 | 8.16 | 18.4 | 16.8 |
| CCN1CCN(c2ccc(Nc3cc(N(C)C(=O)Nc4c(Cl)c(OC)cc(OC)c4Cl)ncn3)cc2)CC1 [Infigratinib] (top concentration 1000 nM) | 0 | 0 | 0 | 0 | 0 | 0 | 0 | 0 | 0 | 0 | 0 | 0 | 0 | 0 | 0 | 0 | 0 | 0 | 0 | 0 |
| O=C(Nc1cnn2ccc(N3CCC[C@@H]3c3cc(F)ccc3F)nc12)N1CC[C@H](O)C1 [Larotrectinib] (top concentration 1000 nM) | -0.62 | 1.48 | -0.62 | -0.62 | -0.62 | 2.78 | -0.62 | 0.98 | -0.62 | 0.48 | 0.48 | -0.62 | -0.62 | -0.62 | 4.18 | -0.62 | -0.62 | -0.62 | -0.62 | -0.62 |
| C[C@]1(O)C[C@@H](c2nc(-c3ccc4ccc(-c5ccccc5)nc4c3)c3c(N)nccn32)C1 [Linsitinib] (top concentration 10000 nM) | -3.18 | 0.72 | 0.22 | 4.82 | 2.22 | -3.18 | -2.08 | -2.98 | -0.28 | 3.12 | -3.18 | 1.72 | -3.18 | -3.18 | 2.22 | -3.18 | -0.68 | -3.18 | -2.28 | -2.68 |
| O=C(O)CC[C@H]1CC[C@@](c2cc(F)ccc2F)(S(=O)(=O)c2ccc(Cl)cc2)CC1 [MK-0752] (top concentration 1000 nM) | 0 | 0.3 | 0 | 0.4 | 0 | 0 | 3.2 | 0 | 0 | 0 | 0 | 4.6 | 0 | 0 | 0 | 0 | 0 | 0 | 0 | 0 |
| CNC(=O)[C@@H](NC(=O)[C@H](CC(C)C)[C@H](O)C(=O)NO)C(C)(C)C [Marimastat] (top concentration 10000 nM) | 2.92 | 2.02 | 0.92 | 0.12 | -1.28 | -0.38 | -0.68 | -1.28 | -0.98 | -1.28 | -1.28 | -1.28 | -0.48 | 2.82 | -1.08 | 4.22 | -0.88 | -1.28 | 0.22 | -0.68 |
| Clc1ccc(C(c2ccccc2Cl)C(Cl)Cl)cc1 (stereo not given) [Mitotane] (top concentration 10000 nM) | 0.32 | -0.08 | 0.12 | -0.08 | -0.08 | -0.08 | -0.08 | -0.08 | -0.08 | 0.02 | -0.08 | -0.08 | -0.08 | -0.08 | 5.12 | -0.08 | -0.08 | -0.08 | -0.08 | -0.08 |
| CCS(=O)(=O)Nc1ccc(Oc2ccc(F)cc2F)c(-c2cn(C)c(=O)c3[nH]ccc23)c1 [Mivebresib] (top concentration 10000 nM) | 2.7 | 18.1 | 12.5 | 1.5 | 1.7 | 12.7 | 4.6 | 17.4 | -14.8 | 6 | 6 | -13 | 1.5 | 13.1 | 1.9 | 0.5 | 1.6 | -1.8 | 10.9 | 16.5 |
| CN1C(=O)N[C@H](Cc2c[nH]c3c(Cl)cccc23)C1=O [Necrostatin_2] (top concentration 10000 nM) | -0.08 | -0.08 | -0.08 | -0.08 | -0.08 | -0.08 | -0.08 | -0.08 | -0.08 | -0.08 | -0.08 | -0.08 | -0.08 | -0.08 | -0.08 | -0.08 | -0.08 | -0.08 | -0.08 | -0.08 |
| O=c1ncn2nc(Sc3ccc(F)cc3F)ccc2c1-c1c(Cl)cccc1Cl [Neflamapimod] (top concentration 10000 nM) | 0 | 6.7 | 0 | 0.5 | 1.3 | 0.1 | 2.1 | 3.1 | 0 | 2.2 | 0.6 | 4.7 | 0 | 2.1 | 0.8 | 0 | 1.3 | 3.1 | 0 | 2.9 |
| CC(O)c1cc(C(=O)N[C@@H](C)Cn2ccc(-c3ccc(C#N)c(Cl)c3)n2)n[nH]1 (stereo not given in full) [ODM-201] (top concentration 2500 nM) | 0.82 | 1.12 | -0.28 | 2.12 | 4.72 | 4.62 | 0.12 | -0.18 | -0.28 | 2.52 | 1.22 | -0.08 | 1.52 | 1.82 | 0.12 | -0.28 | -0.28 | 0.02 | -0.28 | 0.12 |
| C=CC(=O)Nc1cccc(Oc2nc(Nc3ccc(N4CCN(C)CC4)cc3)nc3ccsc23)c1 [Olmutinib] (top concentration 1000 nM) | -0.02 | 1.58 | -0.02 | -0.02 | -0.02 | 1.28 | -0.02 | 1.68 | -0.02 | 1.78 | -0.02 | -0.02 | -0.02 | -0.02 | -0.02 | -0.02 | -0.02 | 2.28 | -0.02 | -0.02 |
| C=CC(=O)Nc1cc(Nc2nccc(-c3cn(C)c4ccccc34)n2)c(OC)cc1N(C)CCN(C)C [Osimertinib] (top concentration 2500 nM) | 0.08 | -1.02 | -1.12 | -0.82 | -2.52 | 0.78 | -0.42 | 3.88 | -3.52 | 2.98 | -1.62 | -3.82 | -0.52 | -0.82 | -0.92 | -4.42 | 1.68 | 0.88 | 2.18 | -1.42 |
